# Measurements: patent publication US5679671A, “Amino acid derivative” (Eisai Co., Ltd., priority 1993, dated 1997)
# Legend:
# Type in all cases: biochemical
# NEP [1] = biological target: T1, NEP (Rattus norvegicus, UniProt P07861); assay: NEP inhibition activity (Experiment C-1); conditions: Table C-1
# T1 sequence (P07861 1-750): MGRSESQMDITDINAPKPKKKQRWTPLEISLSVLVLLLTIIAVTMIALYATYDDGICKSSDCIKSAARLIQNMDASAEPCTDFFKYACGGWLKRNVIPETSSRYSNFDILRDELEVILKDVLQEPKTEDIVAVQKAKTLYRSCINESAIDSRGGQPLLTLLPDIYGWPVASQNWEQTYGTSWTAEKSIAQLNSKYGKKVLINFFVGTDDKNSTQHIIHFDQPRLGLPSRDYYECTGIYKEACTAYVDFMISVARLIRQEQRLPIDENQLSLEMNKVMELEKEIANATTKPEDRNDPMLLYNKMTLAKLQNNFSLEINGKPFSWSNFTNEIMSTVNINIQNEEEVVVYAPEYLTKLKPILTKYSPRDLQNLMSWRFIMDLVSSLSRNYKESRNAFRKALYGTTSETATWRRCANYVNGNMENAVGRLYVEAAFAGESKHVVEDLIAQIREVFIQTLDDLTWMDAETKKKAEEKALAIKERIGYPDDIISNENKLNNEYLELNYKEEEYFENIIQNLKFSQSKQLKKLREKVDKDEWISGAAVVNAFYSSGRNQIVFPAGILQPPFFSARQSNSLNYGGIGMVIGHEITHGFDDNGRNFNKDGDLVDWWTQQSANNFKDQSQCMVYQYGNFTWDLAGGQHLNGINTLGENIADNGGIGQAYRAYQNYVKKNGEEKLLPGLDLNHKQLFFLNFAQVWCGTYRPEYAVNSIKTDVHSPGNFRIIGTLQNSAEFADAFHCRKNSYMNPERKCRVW
# Protocol: The NEP activity was determined by the following manner in accordance with the method of Orlowsky and Wilk (Purification and Specificity of a Membrane-Bound Metalloendpeptidase from Bovine Pituitaries., Marian Orlowsky and Shrwin Wilk, Biochemistry, 1981, 20, 4942-4950.).
# (§1) As a substrate, benzoyl-glycyl-arginyl-arginyl-2-naphthylamide (benzoyl-Gly-Arg-Arg-2-naphthylamide (Nova Biochem, Switzerland)) was used. In the presence of an NEP enzyme preparation and excessive leucine aminopeptidase (sigma chemical Co., U.S.A.), the liberated naphthylamine was made to undergo color development with first garnet (Sigma chemical Co., U.S.A.), followed by the measurement of the absorbance at a wavelength of 540 nm.
# (§2) With respect to the NEP inhibition activity, the test compound was added to the experimental system as described above in such a manner as to give the final concentrations of 1, 3, 10, 30, 100, 300 and 1000 nM, an inhibition curve was prepared, and then the concentration at which 50% inhibition was achieved was taken as IC50. As a comparative compound, [4S-[4α,7α(R*),12bβ]]-7-[(1-oxo-2-(S)-thio-3-phenyl-propyl)amino]-1,2,3,4,6,7,8,12b-octahydro-6-oxopyrido-[2,1-a][2]benzazepine-4-carboxylic acid was used.
# ACE [2] = biological target: T2, ACE (Rattus norvegicus, UniProt P47820); assay: ACE inhibition activity using rat lung (Experiment C-2); conditions: Table C-1; rat lung membrane fraction, borate buffer pH 8.3
# T2 construct: membrane fraction prepared from rat lung; from tissue; host or cells: rat lung, membrane fraction (method of Wu-Wong et al.)
# T2 sequence (P47820 36-1313): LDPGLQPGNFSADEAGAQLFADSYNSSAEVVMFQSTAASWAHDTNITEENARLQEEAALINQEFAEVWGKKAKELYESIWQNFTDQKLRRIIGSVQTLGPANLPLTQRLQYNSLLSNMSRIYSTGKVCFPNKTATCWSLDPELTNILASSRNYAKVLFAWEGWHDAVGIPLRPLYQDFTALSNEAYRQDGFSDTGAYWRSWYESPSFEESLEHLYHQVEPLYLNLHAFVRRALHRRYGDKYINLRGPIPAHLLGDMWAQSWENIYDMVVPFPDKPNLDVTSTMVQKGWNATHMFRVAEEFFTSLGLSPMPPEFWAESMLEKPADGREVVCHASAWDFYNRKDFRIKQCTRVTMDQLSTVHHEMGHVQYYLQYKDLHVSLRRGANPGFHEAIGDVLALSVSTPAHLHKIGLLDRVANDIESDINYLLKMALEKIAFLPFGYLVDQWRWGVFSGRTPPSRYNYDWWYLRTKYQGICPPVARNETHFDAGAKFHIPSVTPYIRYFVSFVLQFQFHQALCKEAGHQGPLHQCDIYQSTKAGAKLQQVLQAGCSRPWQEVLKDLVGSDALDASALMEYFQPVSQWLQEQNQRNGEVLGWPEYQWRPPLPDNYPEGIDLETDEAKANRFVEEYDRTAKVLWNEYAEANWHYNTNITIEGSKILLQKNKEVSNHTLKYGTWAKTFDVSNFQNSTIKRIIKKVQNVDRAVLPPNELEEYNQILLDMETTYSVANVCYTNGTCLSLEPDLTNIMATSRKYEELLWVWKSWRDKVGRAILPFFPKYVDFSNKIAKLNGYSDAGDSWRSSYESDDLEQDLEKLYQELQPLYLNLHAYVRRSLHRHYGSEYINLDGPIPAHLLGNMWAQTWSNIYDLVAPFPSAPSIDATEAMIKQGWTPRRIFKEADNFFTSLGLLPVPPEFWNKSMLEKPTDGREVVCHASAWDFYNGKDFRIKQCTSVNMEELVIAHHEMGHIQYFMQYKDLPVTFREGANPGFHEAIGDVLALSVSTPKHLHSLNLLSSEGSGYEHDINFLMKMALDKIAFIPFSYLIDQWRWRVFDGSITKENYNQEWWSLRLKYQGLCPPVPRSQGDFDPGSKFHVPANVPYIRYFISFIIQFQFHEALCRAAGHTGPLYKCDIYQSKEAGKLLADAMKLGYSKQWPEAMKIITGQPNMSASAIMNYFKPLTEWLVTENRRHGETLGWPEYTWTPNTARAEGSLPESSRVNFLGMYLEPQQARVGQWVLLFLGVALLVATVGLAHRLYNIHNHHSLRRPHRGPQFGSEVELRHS
# Protocol: (§3) The ACE inhibition activity was determined by using a membrane fraction prepared from rat lung in accordance with the method of Wu-Wong et al. (Characterization of Endthelin Converting Enzyme in Rat Lung., Junshyum R. Wu-Wong, Gerald P. Budzik, Edward M. Devine and Terry J. Opgenorth, Biochem. Biophys. Res. Commun., 1990, 171, 1291-1296.).
# The ACE activity was determined with the use of a modification (modified to a borate buffer, pH 8.3) of the method of Cushman and Cheung (Spectrophotometric Assay and Properties of the Angiotensin-Converting Enzyme of Rabbit Lung., Cushman D. W. and Cheung H. S., 1971, 20, 1637-1648.).
# (§4) In the presence of ACE, the hippurate liberated from hippuryl-histidyl-leucine (Hippuryl-His-Leu (PeptideInstitute Inc., Japan)) was extracted with ethyl acetate and then the absorbance was measured at a wavelength of 228 nm.
# as §2, with “ACE” for “NEP”, “reaction” for “experimental”
# ACE [3] = biological target: T2, ACE; assay: ACE inhibition activity using rat lung (Experiment A-2); conditions: rat lung membrane fraction, borate buffer pH 8.3
# Protocol: as §3, with “Gerald,” for “Gerald”
# The ACE activity was determined with the use of a modification (modified to a borate buffer, pH 8.3) of the method of Cushman and Cheung (Spectrophotometric Assay and Properties of the Angiotensin-Converting Enzyme of Rabbit Lung., Cushman, D. W. and Cheung H. S., 1971, 20, 1637-1648.).
# as §4
# (§5) With respect to the ACE inhibition activity, the inhibitor was added to the experimental system as described above in such a manner as to give the final concentrations of 1, 3, 10, 30, 100, 300 and 1000 nM, an inhibition curve was prepared, and then the concentration at which 50% inhibition was achieved was taken as IC50.
# NEP [4] = biological target: T1, NEP; assay: NEP inhibition activity using rat renal cortex (Experiment A-1); set-up: membrane fraction prepared from rat renal cortex; from tissue; host or cells: rat renal cortex, membrane fraction (method of Booth and Kenny); conditions: rat renal cortex membrane fraction
# Protocol: The NEP activity was determined by using a membrane fraction prepared from rat renal cortex in accordance with the method of Booth and Kenny (A Rapid Metod for the Purificaton of Microvilli from Rabbit Kidney., Andrew G. Booth and A. John Kenny, Biochem j., 1974, 142, […].).
# The NEP activity was determined by the following manner in accordance with the method of Orlowsky and Wilk (Purification and Specificity of a Membrane-Bound Metalloendopeptidase from Bovine Pituitaries., Marian Orlowsky and Shrwin Wilk, Biochemistry, 1981, 20, 4942-4950.).
# as §1
# as §5, with “NEP” for “ACE”
# NEP [5] = biological target: T1, NEP; assay: NEP inhibition activity (Experiment E-1); set-up: membrane fraction prepared from rat renal cortex; from tissue; host or cells: rat renal cortex, membrane fraction (method of Booth and Kenny); conditions: rat renal cortex membrane fraction
# Protocol: As a source of the enzyme NEP, a membrane fraction prepared from rat renal cortex in accordance with the method of Booth and Kenny (A Rapid Method for the Purification of Microvilli from Rabbit Kidney., Andrew G. Booth and A. John Kenny, Biochem. j., 1974, 142,575-581.) was employed. The NEP activity was determined in accordance with the method of Orlowsky and Wilk (Purification and Specificity of a Membrane-Bound Metalloendpeptidase from Bovine Pituitaries., Marian Orlowsky and Shrwin Wilk, Biochemistry, 1981, 20, 4942-4950.). Now the procedure will be briefly described.
# as §1, with “(benzoyl-Gly-Arg-Arg-2 naphthylamide” for “(benzoyl-Gly-Arg-Arg-2-naphthylamide”
# (§6) To determine the NEP inhibition activity and the ACE inhibition activity, the inhibitor was added to the assay systems of both enzyme activities as described above in such a manner as to give the final concentrations of 1, 3, 10, 30, 100, […] and 1000 nM and inhibition curves were prepared. Then the concentration at which 50% inhibition was achieved was taken as IC50.
# ACE [6] = biological target: T2, ACE; assay: ACE inhibition activity (Experiment E-1); conditions: rat lung membrane fraction, pH 8.3
# Protocol: As a source of the enzyme ACE, a membrane fraction prepared from rat lung in accordance with the method of Wu-Wong et al. (Characterization of Endthelin Converting Enzyme in Rat Lung., Jinshyum R. Wu-Wong, Gerald, P. Budzik, Edward M. Devine and Terry J. Opgenorth, Biochem. Biophys. Res. Commun., 1990, 171, 1291-1296.) was used. The ACE activity was determined with the use of a modification (modified to a borate buffer pH 8.3) of the method of Cushman and Cheung (Spectrophotometric Assay and Properties of the Angiotensin-Converting Enzyme of Rabbit Lung., Cushman D. W. and Cheung H. S., 1971, 20, 1637-1648.). Now the procedure will be briefly described.
# as §4, §6
IC50 (NEP [1]),IC50 (ACE [2]),IC50 (ACE [3]),IC50 (NEP [4]),Compound,also measured
6.6 nM,12.5 nM,–,–,"CC[C@H](C)[C@H](S)C(=O)N[C@H]1Cc2ccc(NS(C)(=O)=O)cc2[C@H]2CCC[C@@H](C(=O)O)N2C1=O [Example C-15, [4S-[4α,7α(R*),12bβ]]-11-Methylsulfonylamino-7-[[(2S,3S)-3-methyl-1-oxo-2-thiopentyl]amino]-6-oxo-1,2,3,4,6,7,8,12b-octahydropyrido[2,1-a][2]benzazepine-4-carboxylic acid]",–
–,–,50 nM,90 nM,"O=C(O)CN1C(=O)C(NC(=O)[C@@H](S)Cc2ccccc2)CCc2ccc(-c3ccccc3)cc21 (stereo partly drawn) [Example A-3, 1-Carboxymethyl-3-[(S)-2-mercapto-3-phenylpropionylamino]-8-phenyl-1H-[1]benzazepin-2-one]",–
–,–,10 nM,8.2 nM,"O=C(O)CN1C(=O)C(NC(=O)[C@@H](S)Cc2ccccc2)CCc2ccccc21 (stereo partly drawn) [Example A-7, 1-Carboxymethyl-3-[(S)-2-mercapto-3-phenylpropionylamino]1H-[1]benzazepin-2-one]",–
15.1 nM,12.5 nM,–,–,"CC[C@H](C)[C@H](S)C(=O)N[C@H]1CSc2ccccc2N(CC(=O)O)C1=O [Example C-12, (R)-3-[[(2S,3S)-3-Methyl-1-oxo-2-thiopentyl]amino]-5-carboxymethyl-2,3-dihydro-1,5-benzothiazepin-4(5H)-one]",–
–,–,–,–,"COc1ccc(C[C@H](S)C(=O)N[C@H]2Cc3ccc(-c4ccccc4)cc3[C@H]3CCC[C@@H](C(=O)O)N3C2=O)cc1 [Example E-7, [4S-[4α,7α(R*),12bβ]]-7-[(S)-2-Mercapto-3-(4-methoxyphenyl)propionylamino]-6-oxo-11-phenyl-1,2,3,4,6,7,8,12b-octahydropyrido[2.1-a][2]benzazepine-4-carboxylic acid]",IC50 (NEP [5]): 45 nM; IC50 (ACE [6]): 11 nM
–,–,50 nM,160 nM,CC(C)[C@H](S)C(=O)NC1CCc2ccc(-c3ccccc3)cc2N(CC(=O)O)C1=O (stereo partly drawn) [Example A-5],–
